≈ marks a conversion by molar mass, not a printed value.
Test system: G(−) bacterial strains
Experiment: Dilution antimicrobial susceptibility tests (MIC, NCCLS agar dilution / broth dilution)
Assay type: cell-based, Gram-negative organisms
Conditions: unit assumed
In short: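 Agar dilution on Mueller-Hinton agar at 10^4 CFU/spot and broth dilution at 5×10^5 CFU/well, per NCCLS M7-A5. Streptococci tested on Mueller-Hinton agar with 5% sheep blood. MIC taken as minimum inhibitory concentration; ATCC control strains run alongside.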

[1] = strain #1 Acinetobacter calcoaceticus
[2] = strain #2 Acinetobacter baumannii, Cf-R, Ci-R
[3] = strain #3 Acinetobacter baumannii, Cf-R, Ci-R, Mp-I
[4] = strain #4 Acinetobacter baumannii, Cf-R, Imp-I, CBPase
[5] = strain #7 Enterobacter aerogenes
[6] = strain #8 Enterobacter cloacae, Cf-R, B+
[7] = strain #9 Enterobacter cloacae, Cf-R
[8] = strain #10 Escherichia coli, Ci-R
[9] = strain #11 Escherichia coli, Ci-R, AmpC
[10] = strain #15 Klebsiella pneumoniae
[11] = strain #16 Moraxella catarrhalis
[12] = strain #21 Providencia rettgeri
[13] = strain #22 Salmonella typhimurium
[14] = strain #25 Shigella dysenteriae
[15] = strain #28 Stenotrophomonas maltophilia
[16] = strain #29 Pseudomonas aeruginosa
[17] = strain #30 Pseudomonas aeruginosa
[18] = strain #31 Pseudomonas aeruginosa, Ofx-R
[19] = strain #32 Pseudomonas aeruginosa, Cf-R
[20] = strain #33 Pseudomonas aeruginosa, Ci-R
[21] = strain #34 Pseudomonas aeruginosa, Gen-R
[22] = strain #35 Pseudomonas aeruginosa, Ip-R
[23] = strain #36 Pseudomonas aeruginosa, Cf-R, Ci-R, Mp-R

Compound: C[C@@H](O)C1C(=O)N2C(C(=O)O)=C(CN3CC[C@H](NC=N)C3)[C@H](C)C12 (some centres unmarked) [Compound 84]
- MIC [1]: 0.25 µg/mL (≈ 0.743 µM)
- MIC [2]: 0.5 µg/mL (≈ 1.49 µM)
- MIC [3]: 1 µg/mL (≈ 2.97 µM)
- MIC [4]: 1 µg/mL (≈ 2.97 µM)
- MIC (strain #5 Citrobacter diversus): 0.25 µg/mL (≈ 0.743 µM)
- MIC (strain #6 Citrobacter freundii): 0.5 µg/mL (≈ 1.49 µM)
- MIC [5]: 1 µg/mL (≈ 2.97 µM)
- MIC [6]: 0.25 µg/mL (≈ 0.743 µM)
- MIC [7]: 0.5 µg/mL (≈ 1.49 µM)
- MIC [8]: 0.25 µg/mL (≈ 0.743 µM)
- MIC [9]: 0.25 µg/mL (≈ 0.743 µM)
- MIC (strain #12 Escherichia coli): 0.25 µg/mL (≈ 0.743 µM)
- MIC (strain #13 Escherichia coli): 0.5 µg/mL (≈ 1.49 µM)
- MIC (strain #14 Klebsiella oxytoca): 0.5 µg/mL (≈ 1.49 µM)
- MIC [10]: 0.5 µg/mL (≈ 1.49 µM)
- MIC [11]: ≤ 0.008 µg/mL
- MIC (strain #17 Morganella Morganii): 4 µg/mL (≈ 11.9 µM)
- MIC (strain #18 Morganella Morganii): 2 µg/mL (≈ 5.95 µM)
- MIC (strain #19 Proteus vulgaris): 1 µg/mL (≈ 2.97 µM)
- MIC (strain #20 Proteus mirabilis): 0.5 µg/mL (≈ 1.49 µM)
- MIC [12]: 2 µg/mL (≈ 5.95 µM)
- MIC [13]: 0.5 µg/mL (≈ 1.49 µM)
- MIC (strain #23 Serratia marcescens): 1 µg/mL (≈ 2.97 µM)
- MIC (strain #24 Serratia marcescens): 1 µg/mL (≈ 2.97 µM)
- MIC [14]: 0.5 µg/mL (≈ 1.49 µM)
- MIC (strain #26 Shigella sonnei): 0.5 µg/mL (≈ 1.49 µM)
- MIC (strain #27 Shigella flexneri): 0.25 µg/mL (≈ 0.743 µM)
- MIC [15]: 0.25 µg/mL (≈ 0.743 µM)
- MIC [16]: 2 µg/mL (≈ 5.95 µM)
- MIC [17]: 2 µg/mL (≈ 5.95 µM)
- MIC [18]: 0.5 µg/mL (≈ 1.49 µM)
- MIC [19]: 2 µg/mL (≈ 5.95 µM)
- MIC [20]: 2 µg/mL (≈ 5.95 µM)
- MIC [21]: 2 µg/mL (≈ 5.95 µM)
- MIC [22]: 4 µg/mL (≈ 11.9 µM)
- MIC [23]: 16 µg/mL (≈ 47.6 µM)

Compound: C[C@@H](O)[C@H]1C(=O)N2C(C(=O)O)=C(CN3CC(O)C(NC(=N)N)C3)[C@H](C)[C@H]12 (mixture of isomers) [Compound 176]
- MIC [1]: 0.13 µg/mL
- MIC [2]: 0.5 µg/mL
- MIC [3]: 1 µg/mL
- MIC [4]: 1 µg/mL
- MIC (strain #5 Citrobacter diversus): 0.063 µg/mL
- MIC (strain #6 Citrobacter freundii): 0.13 µg/mL
- MIC [5]: 0.25 µg/mL
- MIC [6]: 0.063 µg/mL
- MIC [7]: 0.13 µg/mL
- MIC [8]: 0.063 µg/mL
- MIC [9]: 0.063 µg/mL
- MIC (strain #12 Escherichia coli): 0.063 µg/mL
- MIC (strain #13 Escherichia coli): 0.13 µg/mL
- MIC (strain #14 Klebsiella oxytoca): 0.13 µg/mL
- MIC [10]: 0.13 µg/mL
- MIC [11]: ≤ 0.008 µg/mL
- MIC (strain #17 Morganella Morganii): 1 µg/mL
- MIC (strain #18 Morganella Morganii): 0.5 µg/mL
- MIC (strain #19 Proteus vulgaris): 0.25 µg/mL
- MIC (strain #20 Proteus mirabilis): 0.063 µg/mL
- MIC [12]: 0.25 µg/mL
- MIC [13]: 0.13 µg/mL
- MIC (strain #23 Serratia marcescens): 0.25 µg/mL
- MIC (strain #24 Serratia marcescens): 0.25 µg/mL
- MIC [14]: 0.13 µg/mL
- MIC (strain #26 Shigella sonnei): 0.063 µg/mL
- MIC (strain #27 Shigella flexneri): 0.063 µg/mL
- MIC [15]: 0.063 µg/mL
- MIC [16]: 1 µg/mL
- MIC [17]: 1 µg/mL
- MIC [18]: 0.5 µg/mL
- MIC [19]: 1 µg/mL
- MIC [20]: 1 µg/mL
- MIC [21]: 1 µg/mL
- MIC [22]: 2 µg/mL
- MIC [23]: 8 µg/mL

Compound: C[C@@H](O)C1C(=O)N2C(C(=O)O)=C(CN3CC[C@H](C(=O)NS(C)(=O)=O)C3)[C@H](C)C12 (some centres unmarked) [Compound 132]
- MIC [1]: 4 µg/mL (≈ 9.63 µM)
- MIC [2]: 16 µg/mL (≈ 38.5 µM)
- MIC [3]: 16 µg/mL (≈ 38.5 µM)
- MIC [4]: 32 µg/mL (≈ 77 µM)
- MIC (strain #5 Citrobacter diversus): 0.25 µg/mL (≈ 0.602 µM)
- MIC (strain #6 Citrobacter freundii): 0.25 µg/mL (≈ 0.602 µM)
- MIC [5]: 1 µg/mL (≈ 2.41 µM)
- MIC [6]: 0.25 µg/mL (≈ 0.602 µM)
- MIC [7]: 0.5 µg/mL (≈ 1.2 µM)
- MIC [8]: 0.25 µg/mL (≈ 0.602 µM)
- MIC [9]: 0.25 µg/mL (≈ 0.602 µM)
- MIC (strain #12 Escherichia coli): 0.25 µg/mL (≈ 0.602 µM)
- MIC (strain #13 Escherichia coli): 0.25 µg/mL (≈ 0.602 µM)
- MIC (strain #14 Klebsiella oxytoca): 0.5 µg/mL (≈ 1.2 µM)
- MIC [10]: 0.5 µg/mL (≈ 1.2 µM)
- MIC [11]: 0.016 µg/mL (≈ 0.0385 µM)
- MIC (strain #17 Morganella Morganii): 4 µg/mL (≈ 9.63 µM)
- MIC (strain #18 Morganella Morganii): 4 µg/mL (≈ 9.63 µM)
- MIC (strain #19 Proteus vulgaris): 1 µg/mL (≈ 2.41 µM)
- MIC (strain #20 Proteus mirabilis): 0.25 µg/mL (≈ 0.602 µM)
- MIC [12]: 1 µg/mL (≈ 2.41 µM)
- MIC [13]: 0.25 µg/mL (≈ 0.602 µM)
- MIC (strain #23 Serratia marcescens): 0.5 µg/mL (≈ 1.2 µM)
- MIC (strain #24 Serratia marcescens): 1 µg/mL (≈ 2.41 µM)
- MIC [14]: 0.25 µg/mL (≈ 0.602 µM)
- MIC (strain #26 Shigella sonnei): 0.25 µg/mL (≈ 0.602 µM)
- MIC (strain #27 Shigella flexneri): 0.13 µg/mL (≈ 0.313 µM)
- MIC [15]: 2 µg/mL (≈ 4.81 µM)

Compound: C[C@@H](O)C1C(=O)N2C(C(=O)O)=C(CN3CC[C@H](O)C3)[C@H](C)C12 (some centres unmarked) [Compound 146]
- MIC [1]: 1 µg/mL (≈ 3.22 µM)
- MIC [2]: 1 µg/mL (≈ 3.22 µM)
- MIC [3]: 2 µg/mL (≈ 6.44 µM)
- MIC [4]: 4 µg/mL (≈ 12.9 µM)
- MIC (strain #5 Citrobacter diversus): 0.5 µg/mL (≈ 1.61 µM)
- MIC (strain #6 Citrobacter freundii): 0.5 µg/mL (≈ 1.61 µM)
- MIC [5]: 2 µg/mL (≈ 6.44 µM)
- MIC [6]: 0.25 µg/mL (≈ 0.806 µM)
- MIC [7]: 1 µg/mL (≈ 3.22 µM)
- MIC [8]: 0.25 µg/mL (≈ 0.806 µM)
- MIC [9]: 0.25 µg/mL (≈ 0.806 µM)
- MIC (strain #12 Escherichia coli): 0.5 µg/mL (≈ 1.61 µM)
- MIC (strain #13 Escherichia coli): 0.5 µg/mL (≈ 1.61 µM)
- MIC (strain #14 Klebsiella oxytoca): 1 µg/mL (≈ 3.22 µM)
- MIC [10]: 1 µg/mL (≈ 3.22 µM)
- MIC [11]: 0.016 µg/mL (≈ 0.0516 µM)
- MIC (strain #17 Morganella Morganii): 8 µg/mL (≈ 25.8 µM)
- MIC (strain #18 Morganella Morganii): 8 µg/mL (≈ 25.8 µM)
- MIC (strain #19 Proteus vulgaris): 4 µg/mL (≈ 12.9 µM)
- MIC (strain #20 Proteus mirabilis): 0.5 µg/mL (≈ 1.61 µM)
- MIC [12]: 2 µg/mL (≈ 6.44 µM)
- MIC [13]: 0.5 µg/mL (≈ 1.61 µM)
- MIC (strain #23 Serratia marcescens): 2 µg/mL (≈ 6.44 µM)
- MIC (strain #24 Serratia marcescens): 2 µg/mL (≈ 6.44 µM)
- MIC [14]: 0.5 µg/mL (≈ 1.61 µM)
- MIC (strain #26 Shigella sonnei): 0.5 µg/mL (≈ 1.61 µM)
- MIC (strain #27 Shigella flexneri): 0.25 µg/mL (≈ 0.806 µM)
- MIC [15]: 0.5 µg/mL (≈ 1.61 µM)

Compound: C[C@@H](O)C1C(=O)N2C(C(=O)O)=C(CN3CC(NC(=N)N)C3)[C@H](C)C12 (some centres unmarked) [Compound 89]
- MIC [1]: 0.13 µg/mL (≈ 0.385 µM)
- MIC [2]: 1 µg/mL (≈ 2.96 µM)
- MIC [3]: 1 µg/mL (≈ 2.96 µM)
- MIC [4]: 0.5 µg/mL (≈ 1.48 µM)
- MIC (strain #5 Citrobacter diversus): 0.13 µg/mL (≈ 0.385 µM)
- MIC (strain #6 Citrobacter freundii): 0.25 µg/mL (≈ 0.741 µM)
- MIC [5]: 1 µg/mL (≈ 2.96 µM)
- MIC [6]: 0.13 µg/mL (≈ 0.385 µM)
- MIC [7]: 0.25 µg/mL (≈ 0.741 µM)
- MIC [8]: 0.13 µg/mL (≈ 0.385 µM)
- MIC [9]: 0.13 µg/mL (≈ 0.385 µM)
- MIC (strain #12 Escherichia coli): 0.13 µg/mL (≈ 0.385 µM)
- MIC (strain #13 Escherichia coli): 0.25 µg/mL (≈ 0.741 µM)
- MIC (strain #14 Klebsiella oxytoca): 0.5 µg/mL (≈ 1.48 µM)
- MIC [10]: 0.25 µg/mL (≈ 0.741 µM)
- MIC [11]: ≤ 0.008 µg/mL
- MIC (strain #17 Morganella Morganii): 2 µg/mL (≈ 5.93 µM)
- MIC (strain #18 Morganella Morganii): 2 µg/mL (≈ 5.93 µM)
- MIC (strain #19 Proteus vulgaris): 0.5 µg/mL (≈ 1.48 µM)
- MIC (strain #20 Proteus mirabilis): 0.25 µg/mL (≈ 0.741 µM)
- MIC [12]: 1 µg/mL (≈ 2.96 µM)
- MIC [13]: 0.25 µg/mL (≈ 0.741 µM)
- MIC (strain #23 Serratia marcescens): 0.5 µg/mL (≈ 1.48 µM)
- MIC (strain #24 Serratia marcescens): 0.5 µg/mL (≈ 1.48 µM)
- MIC [14]: 0.25 µg/mL (≈ 0.741 µM)
- MIC (strain #26 Shigella sonnei): 0.25 µg/mL (≈ 0.741 µM)
- MIC (strain #27 Shigella flexneri): 0.13 µg/mL (≈ 0.385 µM)
- MIC [15]: 0.13 µg/mL (≈ 0.385 µM)
- MIC [16]: 1 µg/mL (≈ 2.96 µM)
- MIC [17]: 1 µg/mL (≈ 2.96 µM)
- MIC [18]: 0.5 µg/mL (≈ 1.48 µM)
- MIC [19]: 1 µg/mL (≈ 2.96 µM)
- MIC [20]: 1 µg/mL (≈ 2.96 µM)
- MIC [21]: 1 µg/mL (≈ 2.96 µM)
- MIC [22]: 4 µg/mL (≈ 11.9 µM)
- MIC [23]: 8 µg/mL (≈ 23.7 µM)
